Columns and labels:
[1] = tested on: capillary circulation of the skin; assay: Laser Doppler study in five human subjects, 10,000 ppm NO formulation vs controls (Example 7); type: in vivo; settings: positive control formulation containing 0.1% methyl nicotinate
Text: This example illustrates delivery of nitric oxide formulations to five human subjects, using procedures and formulations similar to those discussed in Example 5. Each person served as their own control for the testing. A Moor Instruments Laser Doppler was used to determine circulation. […] The formulations used produce positive, almost immediate results when applied to the skin which, in these studies, was manifested by vasodilatation of the cutaneous vascular system.
For each subject, the following creams were applied: a negative control formulation (containing no NO), 0.010 gram of a 10,000 ppm NO formulation, 0.020 gram of a 10,000 ppm NO formulation, and a positive control formulation containing 0.1% methyl nicotinate. The formulations were prepared using procedures similar to those discussed in Example 1.

[2] = tested on: micro-capillary blood flow to skin; assay: Laser Doppler study with covered chamber in three human female subjects, 10,000 ppm NO (Example 5); type: in vivo; settings: applied to the skin at 1/10% in alcohol
Text: While nitric oxide has many physiological effects, the purpose of these studies was to measure physiological effects that would be relatively easy to determine, and which would be noninvasive. […] Nitric oxide is capable of […] the capillary bed, and thus, laser Doppler was selected.
The formulation used in these studies contained nitric oxide dispersed in a lipid matrix. […] Nitric oxide is a very rapid acting molecule, and these studies used a system that employed laser Doppler with a covered chamber. The formulation was placed into the chamber and then attached to the skin by an adhesive layer on the covering. This provided a stable measuring device as determined by multiple normal evaluations of the capillary blood flow without treatment of nitric oxide.
A known positive control, methyl nicotinate, was applied to the skin at a concentration of 1/10% in alcohol. […] The vascular dynamics are such that when the blood vessels dilate physical parameters follow Bernoulli's law. […] The laser Doppler device accurately measured these parameters. […]
A Moor Instruments DRT4 Laser Doppler Blood Flow Monitor (Devon, England) was used in these studies. The laser Doppler technique measured blood flow in the microcapillaries of the skin that are close to the skin surface and the blood flow in underlying arterioles and venules that help to regulate skin temperature. […]

COC(=O)c1cccnc1 [methyl nicotinate]
vasodilatation (laser Doppler) [1]: vasodilatation was observed | laser Doppler response of positive control [2]: rapid response typical of the vasodilator

From patent US9844565B2, “Systems and methods for treatment of acne vulgaris and other conditions with a topical nitric oxide delivery system” (priority 2012, dated 2017)
